Active and inactive are the calls of the source. No stated cut-off is given here; in the data, actives have a measured Kd and inactives only a lower limit.
How the values were obtained:
[1] = target: T1, Serine/threonine-protein kinase D2 (Homo sapiens, UniProt Q9BZL6)
T1 sequence (Q9BZL6 whole entry): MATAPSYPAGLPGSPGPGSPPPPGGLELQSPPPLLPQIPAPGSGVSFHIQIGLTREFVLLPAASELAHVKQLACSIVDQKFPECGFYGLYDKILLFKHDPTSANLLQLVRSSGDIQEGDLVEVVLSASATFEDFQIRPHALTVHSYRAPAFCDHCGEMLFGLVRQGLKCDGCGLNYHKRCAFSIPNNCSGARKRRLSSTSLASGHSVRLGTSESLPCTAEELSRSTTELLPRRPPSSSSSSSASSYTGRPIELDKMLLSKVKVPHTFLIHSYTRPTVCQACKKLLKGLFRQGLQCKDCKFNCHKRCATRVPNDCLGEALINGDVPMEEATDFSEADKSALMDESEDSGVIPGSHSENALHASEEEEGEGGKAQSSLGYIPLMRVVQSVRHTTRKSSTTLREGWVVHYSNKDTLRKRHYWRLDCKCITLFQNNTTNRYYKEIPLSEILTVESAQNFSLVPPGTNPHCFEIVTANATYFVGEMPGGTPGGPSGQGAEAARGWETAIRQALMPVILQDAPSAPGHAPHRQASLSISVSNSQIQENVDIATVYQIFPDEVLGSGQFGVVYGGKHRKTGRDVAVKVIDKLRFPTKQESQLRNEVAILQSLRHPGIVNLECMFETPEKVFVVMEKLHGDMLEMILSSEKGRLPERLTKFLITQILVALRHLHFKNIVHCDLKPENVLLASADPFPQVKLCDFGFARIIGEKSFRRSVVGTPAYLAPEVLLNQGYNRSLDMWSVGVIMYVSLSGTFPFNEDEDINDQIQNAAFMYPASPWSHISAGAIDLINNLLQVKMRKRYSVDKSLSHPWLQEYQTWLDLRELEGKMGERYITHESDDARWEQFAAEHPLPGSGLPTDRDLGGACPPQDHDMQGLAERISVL

[2] = target: T2, Phosphorylase b kinase gamma catalytic chain, liver/testis isoform (Homo sapiens, UniProt P15735)
T2 sequence (P15735 whole entry): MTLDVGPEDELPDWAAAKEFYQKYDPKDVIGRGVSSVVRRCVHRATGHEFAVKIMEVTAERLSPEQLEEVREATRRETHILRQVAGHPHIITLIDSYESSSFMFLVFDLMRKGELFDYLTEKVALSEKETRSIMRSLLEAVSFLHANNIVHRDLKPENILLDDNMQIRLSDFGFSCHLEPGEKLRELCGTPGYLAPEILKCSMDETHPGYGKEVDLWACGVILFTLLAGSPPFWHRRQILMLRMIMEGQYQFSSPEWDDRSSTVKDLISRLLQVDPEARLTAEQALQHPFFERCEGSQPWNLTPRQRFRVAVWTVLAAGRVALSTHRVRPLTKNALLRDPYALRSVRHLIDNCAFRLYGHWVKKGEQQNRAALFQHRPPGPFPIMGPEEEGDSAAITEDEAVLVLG

[3] = target: Receptor-interacting serine/threonine-protein kinase 2 (Homo sapiens, UniProt O43353)
Receptor-interacting serine/threonine-protein kinase 2, sequence (O43353 whole entry): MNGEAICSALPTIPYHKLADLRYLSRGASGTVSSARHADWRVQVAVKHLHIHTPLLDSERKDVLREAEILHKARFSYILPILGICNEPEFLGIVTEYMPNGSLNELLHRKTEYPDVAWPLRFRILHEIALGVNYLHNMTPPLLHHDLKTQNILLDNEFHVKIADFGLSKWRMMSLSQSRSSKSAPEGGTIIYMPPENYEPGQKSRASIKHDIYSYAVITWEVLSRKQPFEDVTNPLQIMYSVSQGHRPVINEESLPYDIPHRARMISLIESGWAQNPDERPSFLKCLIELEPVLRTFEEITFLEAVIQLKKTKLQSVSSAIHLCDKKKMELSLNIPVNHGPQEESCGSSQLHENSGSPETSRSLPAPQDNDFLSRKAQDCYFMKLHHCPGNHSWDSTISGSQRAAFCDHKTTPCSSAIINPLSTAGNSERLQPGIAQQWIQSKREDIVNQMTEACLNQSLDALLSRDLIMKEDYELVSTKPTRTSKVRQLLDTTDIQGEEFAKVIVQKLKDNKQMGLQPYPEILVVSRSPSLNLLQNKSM

[4] = target: T3, Cyclin-G-associated kinase (Homo sapiens, UniProt O14976)
T3 sequence (O14976 whole entry): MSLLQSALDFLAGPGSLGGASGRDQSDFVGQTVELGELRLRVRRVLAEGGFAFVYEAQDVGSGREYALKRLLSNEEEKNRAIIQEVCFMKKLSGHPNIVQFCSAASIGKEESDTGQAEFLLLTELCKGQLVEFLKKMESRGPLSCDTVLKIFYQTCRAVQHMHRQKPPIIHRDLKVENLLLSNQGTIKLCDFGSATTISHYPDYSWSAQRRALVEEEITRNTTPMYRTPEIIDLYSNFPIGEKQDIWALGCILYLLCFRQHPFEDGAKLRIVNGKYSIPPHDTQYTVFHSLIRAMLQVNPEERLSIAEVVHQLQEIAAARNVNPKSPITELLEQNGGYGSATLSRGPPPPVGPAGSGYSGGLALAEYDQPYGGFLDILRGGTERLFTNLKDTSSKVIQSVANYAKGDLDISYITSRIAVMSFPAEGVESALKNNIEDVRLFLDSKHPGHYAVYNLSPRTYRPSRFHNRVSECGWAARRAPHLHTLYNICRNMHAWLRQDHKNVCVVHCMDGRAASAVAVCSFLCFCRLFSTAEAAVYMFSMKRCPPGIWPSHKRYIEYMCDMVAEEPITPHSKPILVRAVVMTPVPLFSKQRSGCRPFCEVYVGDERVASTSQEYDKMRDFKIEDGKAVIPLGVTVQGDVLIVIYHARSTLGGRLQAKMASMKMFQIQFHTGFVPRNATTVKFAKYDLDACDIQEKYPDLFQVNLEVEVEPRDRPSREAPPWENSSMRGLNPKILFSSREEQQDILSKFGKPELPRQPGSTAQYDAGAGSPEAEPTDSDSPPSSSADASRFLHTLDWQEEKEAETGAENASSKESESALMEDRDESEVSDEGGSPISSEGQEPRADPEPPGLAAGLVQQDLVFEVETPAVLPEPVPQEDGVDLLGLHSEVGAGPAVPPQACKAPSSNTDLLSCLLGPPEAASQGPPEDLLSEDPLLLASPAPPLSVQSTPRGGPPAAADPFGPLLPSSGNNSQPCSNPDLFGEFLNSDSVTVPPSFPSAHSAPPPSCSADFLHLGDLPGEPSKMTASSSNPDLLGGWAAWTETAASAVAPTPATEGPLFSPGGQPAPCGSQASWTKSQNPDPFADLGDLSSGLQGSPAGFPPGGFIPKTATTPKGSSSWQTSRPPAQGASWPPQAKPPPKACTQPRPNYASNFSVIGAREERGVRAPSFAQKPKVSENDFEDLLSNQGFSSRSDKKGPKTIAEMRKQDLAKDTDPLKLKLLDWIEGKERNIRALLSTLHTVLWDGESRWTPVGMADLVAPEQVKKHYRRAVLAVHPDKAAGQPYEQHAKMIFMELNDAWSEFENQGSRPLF

[5] = target: T4, Phosphatidylinositol 5-phosphate 4-kinase type-2 gamma (Homo sapiens, UniProt Q8TBX8)
T4 sequence (Q8TBX8 whole entry): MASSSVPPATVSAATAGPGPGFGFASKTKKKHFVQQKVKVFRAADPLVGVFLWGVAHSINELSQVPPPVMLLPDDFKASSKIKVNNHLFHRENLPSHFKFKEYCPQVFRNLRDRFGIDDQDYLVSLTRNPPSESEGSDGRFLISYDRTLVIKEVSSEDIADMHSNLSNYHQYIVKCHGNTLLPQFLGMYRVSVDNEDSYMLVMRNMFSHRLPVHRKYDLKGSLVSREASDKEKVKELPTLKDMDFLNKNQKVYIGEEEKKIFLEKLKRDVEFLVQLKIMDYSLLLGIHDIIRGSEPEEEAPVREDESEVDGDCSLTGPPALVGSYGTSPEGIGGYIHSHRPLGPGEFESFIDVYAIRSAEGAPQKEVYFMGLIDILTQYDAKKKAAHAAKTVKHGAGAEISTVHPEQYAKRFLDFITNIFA

Row | Compound | Kd [1] | Kd [2] | Kd [3] | Kd [4] | Kd [5]
1 | C[C@@H](NC(=O)c1ncnc(N)c1Cl)c1ncc(C(=O)Nc2cc(C(F)(F)F)c(Cl)cn2)s1 [TOVORAFENIB] | > 30 µM (inactive) | > 30 µM (inactive) | > 30 µM (inactive) | > 30 µM (inactive) | > 30 µM (inactive)
2 | Cc1cc(Nc2ncnc3ccc(NC4=NC(C)(C)CO4)cc23)ccc1Oc1ccn2ncnc2c1 [TUCATINIB] | > 30 µM (inactive) | > 30 µM (inactive) | > 30 µM (inactive) | > 30 µM (inactive) | > 30 µM (inactive)
3 | CC(C)c1cc(CNc2nc(Nc3cc(C4CC4)[nH]n3)cc(N3CCN(C)CC3)n2)on1 [XL-228] | 1.37 µM (active) | 2.41 µM (active) | > 30 µM (inactive) | > 30 µM (inactive) | > 30 µM (inactive)
4 | C[C@@H](N)c1ccc(C(=O)Nc2ccnc3[nH]ccc23)cc1 [Y-39983] | 0.572 µM (active) | > 30 µM (inactive) | > 30 µM (inactive) | > 30 µM (inactive) | > 30 µM (inactive)
5 | CN1C/C=C/CCOc2cccc(c2)-c2ccnc(n2)Nc2cccc(c2)C1 [ZOTIRACICLIB] | 0.474 µM (active) | > 30 µM (inactive) | > 30 µM (inactive) | > 30 µM (inactive) | > 30 µM (inactive)
